The test concerns Acinetobacter baumannii ATCC17961. Briefly: Antimicrobial susceptibility testing: 90% growth inhibitory concentration (IC90) determination, Iso-Sensitest broth. In kind it is cell-based. Put shortly: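 Growth at OD600 was monitored every 20 min for 16 h at 35±2 °C, with bacteria inoculated at ~5×10^(5) CFU/ml into Iso-Sensitest medium. Compounds were tested as 10-point twofold dilutions (e.g. 10–0.02 μM final). The 90% inhibitory concentration comes from the log-phase growth.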

The mark [1] stands for this setting: Acinetobacter baumannii, ATCC17961, 90% growth inhibitory concentration, Acinetobacter baumannii ATCC17961, Iso-Sensitest broth, read-out: ATCC 17961 IC90.
[2] abbreviates: Acinetobacter baumannii, ATCC17961, read-out: ATCC 17961 IC90.

In patent US20220396565A1 (Hoffmann-La Roche Inc., priority 2020, published 2022) one finds IC90 data, which are given here for 23 molecules.

Structures can show the parent of a compound that is named as a salt. Where two headings read alike, the source gives them in different places.

For `COc1ccc(-c2cnc(C(=O)Nc3ccc(C(=O)N4CCC(C(=O)N5CC(CN)C5)CC4)c(Cl)c3)n2C)c(F)c1F` [Example 34, N-[4-[4-[3-(aminomethyl)azetidine-1-carbonyl]piperidine-1-carbonyl]-3-chloro-phenyl]-5-(2,3-difluoro-4-methoxy-phenyl)-1-methyl-imidazole-2-carboxamidetrifluoroacetate], the IC90 under setting [1] was 70 nM.

As for `Cn1c(-c2ccc(OC(F)F)c(F)c2F)cnc1C(=O)Nc1ccc(C(=O)N2CCN(C(=O)C3CCN(CCN)CC3)CC2)c(Cl)c1` [Example 292, N-[4-[4-[1-(2-aminoethyl)piperidine-4-carbonyl]piperazine-1-carbonyl]-3-chloro-phenyl]-5-[4-(difluoromethoxy)-2,3-difluoro-phenyl]-1-methyl-imidazole-2-carboxamide trifluoroacetate], under setting [1], the IC90 is 40 nM. For `COc1ccc(-c2cnc(C(=O)Nc3ccc(C(=O)N4CCC(N)CC4)c(Cl)c3)n2C)c(F)c1F` [Example 13, N-[4-(4-Aminopiperidine-1-carbonyl)-3-chloro-phenyl]-5-(2,3-difluoro-4-methoxy-phenyl)-1-methyl-imidazole-2-carboxamide formate], the IC90 under setting [1] came to 110 nM. Turning to `COc1ccc(-c2cnc(C(=O)Nc3ccc(C(=O)N4CCN(C(=O)CCCCN)CC4)c(Cl)c3)n2C)c(F)c1F` [Example 124, N-[4-[4-(5-aminopentanoyl)piperazine-1-carbonyl]-3-chloro-phenyl]-5-(2,3-difluoro-4-methoxy-phenyl)-1-methyl-imidazole-2-carboxamide formate], the IC90 under setting [1] came out at 40 nM. On the same count and under the same terms, the figure for `CN(C)CC(=O)N1CCN(C(=O)c2ccc(NC(=O)c3ncc(-c4ccc(OC(F)F)cc4F)n3C)cc2Cl)CC1` [Example 175, N-[3-chloro-4-[4-[2-(dimethylamino)acetyl]piperazine-1-carbonyl]phenyl]-5-[4-(difluoromethoxy)-2-fluoro-phenyl]-1-methyl-imidazole-2-carboxamide formate] is 50 nM; for `Cn1c(-c2ccc(OC(F)F)c(F)c2)cnc1C(=O)Nc1ccc(C(=O)N2CCN(C(=O)C3CCNCC3)CC2)c(Cl)c1` [Example 144, N-[3-chloro-4-[4-(piperidine-4-carbonyl)piperazine-1-carbonyl]phenyl]-5-[4-(difluoromethoxy)-3-fluoro-phenyl]-1-methyl-imidazole-2-carboxamide formate] it is 60 nM.

`Cc1cc(NC(=O)c2ncc(-c3ccc(OCC#N)c(F)c3F)n2C)ccc1C(=O)N1CCC(C(=O)N2CCO[C@H](CN)C2)CC1` [Example 83, (R)-N-(4-(4-(2-(aminomethyl)morpholine-4-carbonyl)piperidine-1-carbonyl)-3-methylphenyl)-5-(4-(cyanomethoxy)-2,3-difluorophenyl)-1-methyl-1H-imidazole-2-carboxamide 2,2,2-trifluoroacetate]: the IC90 under setting [1] is 170 nM. `COc1ccc(-c2cnc(C(=O)Nc3ccc(C(=O)N4CCC(NC(=O)CC5CCNC5)CC4)c(Cl)c3)n2C)c(F)c1F` (centres unmarked) [Example 11, N-[3-Chloro-4-[4-[(2-pyrrolidin-3-ylacetyl)amino]piperidine-1-carbonyl]phenyl]-5-(2,3-difluoro-4-methoxy-phenyl)-1-methyl-imidazole-2-carboxamide formate]: the IC90 under setting [2] is 70 nM. On to `COc1ccc(-c2cnc(C(=O)Nc3ccc(C(=O)N4CCN(C(=O)N[C@H]5CNC[C@@H]5O)CC4)c(Cl)c3)n2C)c(F)c1F` [Example 284, 4-[2-chloro-4-[[5-(2,3-difluoro-4-methoxy-phenyl)-1-methyl-imidazole-2-carbonyl]amino]benzoyl]-N-[(3S,4S)-4-hydroxypyrrolidin-3-yl]piperazine-1-carboxamide formate], for which the IC90 (90% growth inhibitory concentration, Acinetobacter baumannii ATCC17961, Iso-Sensitest broth, formate, read-out: ATCC 17961 IC90) stood at 80 nM. For `CN(C)C1CN(C(=O)C2CCN(C(=O)c3ccc(NC(=O)c4ncc(-c5ccc(OC(F)F)c(F)c5F)n4C)cc3Cl)CC2)C1` [Example 43, N-[3-chloro-4-[4-[3-(dimethylamino)azetidine-1-carbonyl]piperidine-1-carbonyl]phenyl]-5-[4-(difluoromethoxy)-2,3-difluoro-phenyl]-1-methyl-imidazole-2-carboxamide trifluoioacetate], the IC90 under setting [1] turned out to be 90 nM. As to `Cn1c(-c2ccc(OCC#N)c(F)c2F)cnc1C(=O)Nc1ccc(C(=O)N2CCN(CCN)CC2)c(Cl)c1` [Example 19, N-[4-[4-(2-aminoethyl)piperazine-1-carbonyl]-3-chloro-phenyl]-5-[4-(cyanomethoxy)-2,3-difluoro-phenyl]-1-methyl-imidazole-2-carboxamide trifluoroacetate], the 90% effect concentration (IC90) under setting [1] is 60 nM. The same measure, in the same setting: the result for `Cn1c(-c2ccc(OC(F)F)c(F)c2F)cnc1C(=O)Nc1ccc(C(=O)N2CCC(C(=O)NC[C@@H]3CCNC3)CC2)c(Cl)c1` [Example 47, 1-[2-chloro-4-[[5-[4-(difluoromethoxy)-2,3-difluoro-phenyl]-1-methyl-imidazole-2-carbonyl]amino]benzoyl]-N-[[(3R)-pyrrolidin-3-yl]methyl]piperidine-4-carboxamide trifluoroacetate] reads 40 nM.

With `COc1ccc(-c2cnc(C(=O)Nc3ccc(C(=O)N4CCC(C(=O)N[C@@H]5CCNC5)CC4)c(Cl)c3)n2C)c(F)c1F` [Example 64, 1-[2-chloro-4-[[5-(2,3-difluoro-4-methoxy-phenyl)-1-methyl-imidazole-2-carbonyl]amino]benzoyl]-N-[(3R)-pyrrolidin-3-yl]piperidine-4-carboxamide formate], the IC90 under setting [1] came out at 60 nM. On to `Cn1c(-c2ccc(OC(F)F)c(F)c2F)cnc1C(=O)Nc1ccc(C(=O)N2CCC(C(=O)N[C@H]3CNC[C@@H]3O)CC2)c(Cl)c1` [Example 50, 1-[2-chloro-4-[[5-[4-(difluoromethoxy)-2,3-difluoro-phenyl]-1-methyl-imidazole-2-carbonyl]amino]benzoyl]-N-[(3S,4S)-4-hydroxypyrrolidin-3-yl]piperidine-4-carboxamide trifluoroacetate], for which the IC90 under setting [1] was determined as 50 nM. For `CNCCNC(=O)C1CCN(C(=O)c2ccc(NC(=O)c3ncc(-c4ccc(OCC#N)c(F)c4F)n3C)cc2Cl)CC1` [Example 82, 1-(2-chloro-4-(5-(4-(cyanomethoxy)-2,3-difluorophenyl)-1-methyl-1H-imidazole-2-carboxamido)benzoyl)-N-(2-(methylamino)ethyl) piperidine-4-carboxamide formate], the IC90 under setting [2] stood at 70 nM. On to `COc1ccc(-c2cnc(C(=O)Nc3ccc(C(=O)N4CCN(C(=O)C5CC6(CNC6)C5)CC4)c(C)c3)n2C)c(Cl)c1F` [Example 119, N-[4-[4-(2-azaspiro[3.3]heptane-6-carbonyl)piperazine-1-carbonyl]-3-methyl-phenyl]-5-(2-chloro-3-fluoro-4-methoxy-phenyl)-1-methyl-imidazole-2-carboxamide; formic acid], for which the IC90 under setting [1] turned out to be 120 nM. As to `COc1ccc(-c2cnc(C(=O)Nc3ccc(C(=O)N4CC5(C4)CN(C(=O)[C@@H]4C[C@@H](O)CN4)C5)c(Cl)c3)n2C)c(F)c1F` [Example 112, N-[3-chloro-4-[2-[(2S,4R)-4-hydroxypyrrolidine-2-carbonyl]-2,6-diazaspiro[3.3]heptane-6-carbonyl]phenyl]-5-(2,3-difluoro-4-methoxy-phenyl)-1-methyl-imidazole-2-carboxamide], under setting [1], the IC90 was found to be 230 nM. Consider `COc1ccc(-c2cnc(C(=O)Nc3ccc(C(=O)N4CCC(S(=O)(=O)N5CCNCC5)CC4)c(Cl)c3)n2C)c(F)c1F` [Example 21, N-(3-chloro-4-(4-(piperazin-1-ylsulfonyl)piperidine-1-carbonyl)phenyl)-5-(2,3-difluoro-4-methoxyphenyl)-1-methyl-1H-imidazole-2-carboxamide formate], for which, under setting [1], the IC90 is 100 nM. Take `COc1ccc(-c2cnc(C(=O)Nc3ccc(C(=O)N4CCC(NS(=O)(=O)C5CCNC5)CC4)c(Cl)c3)n2C)c(F)c1F` (centres unmarked) [Example 237, N-[3-chloro-4-[4-(pyrrolidin-3-ylsulfonylamino)piper-idine-1-carbonyl]phenyl]-5-(2,3-difluoro-4-methoxy-phenyl)-1-methyl-imidazole-2-carboxamide]: the IC90 under setting [1] is 50 nM.

Take `COc1ccc(-c2cnc(C(=O)Nc3ccc(C(=O)N4CCC(C(=O)N5C[C@H](N)[C@@H](F)C5)CC4)c(Cl)c3)n2C)c(F)c1F` [Example 37, N-[4-[4-[(3S,4S)-3-amino-4-fluoro-pyrrolidine-1-carbonyl]piperidine-1-carbonyl]-3-chloro-phenyl]-5-(2,3-difluoro-4-methoxy-phenyl)-1-methyl-imidazole-2-carboxamide trifluoroacetate]: under setting [2], the IC90 was found to be 170 nM. Consider `COc1cc(-c2cnc(C(=O)Nc3ccc(C(=O)N4CCN(C(=O)C5CCNCC5)CC4)c(Cl)c3)n2C)cc(F)c1F` [Example 258, N-[3-chloro-4-[4-(piperidine-4-carbonyl)piperazine-1-carbonyl]phenyl]-5-(3,4-difluoro-5-methoxy-phenyl)-1-methyl-imidazole-2-carboxamide formate], for which the IC90 under setting [1] was 1120 nM. As to `COc1ccc(-c2cnc(C(=O)Nc3ccc(C(=O)N4CC(NC(=O)CN(C)C)C4)c(Cl)c3)n2C)c(F)c1F` [Example 189, N-[3-chloro-4-[3-[[2-(dimethylamino)acetyl]amino]azetidine-1-carbonyl]phenyl]-5-(2,3-difluoro-4-methoxy-phenyl)-1-methyl-imidazole-2-carboxamide formate], the IC90 under setting [1] came to 140 nM. Take `COc1ccc(-c2cnc(C(=O)Nc3ccc(C(=O)N4CC(NC(=O)C5CCNCC5)C4)c(Cl)c3)n2C)c(F)c1F` [Example 187, N-[1-[2-chloro-4-[[5-(2,3-difluoro-4-methoxy-phenyl)-1-methyl-imidazole-2-carbonyl]amino]benzoyl]azetidin-3-yl]piperidine-4-carboxamide formate]: under setting [1], the IC90 was determined as 110 nM.
